A short description of assay [1]: Displacement of 125 I-gastrin from gastrin receptor of guinea pig gastric glands.
The target in assay [2] is T1, Cholecystokinin receptor type A (Rattus norvegicus, UniProt P30551).
T1 sequence (P30551 whole entry): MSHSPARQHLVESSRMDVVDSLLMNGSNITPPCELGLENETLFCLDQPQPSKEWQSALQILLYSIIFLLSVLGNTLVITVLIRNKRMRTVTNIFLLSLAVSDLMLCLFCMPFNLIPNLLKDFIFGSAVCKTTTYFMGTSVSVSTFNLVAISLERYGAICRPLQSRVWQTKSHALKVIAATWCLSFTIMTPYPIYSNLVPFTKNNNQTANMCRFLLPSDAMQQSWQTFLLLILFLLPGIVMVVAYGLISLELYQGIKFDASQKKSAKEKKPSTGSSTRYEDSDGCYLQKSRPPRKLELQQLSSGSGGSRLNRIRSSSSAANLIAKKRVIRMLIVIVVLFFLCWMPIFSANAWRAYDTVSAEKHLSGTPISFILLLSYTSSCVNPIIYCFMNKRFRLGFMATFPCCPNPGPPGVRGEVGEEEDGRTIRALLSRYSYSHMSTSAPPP
The assay is described as follows: Displacement of [125 I] CCK-8 from Cholecystokinin type A receptor of rat pancreas.

Molecules are shown by their SMILES. pIC50: −log10 of the molar value.

As for `CCOC(=O)CN1C(=O)C(NC(=O)c2ccc(Cl)cc2)N=C(c2ccccc2F)c2ccccc21` (racemic), the pIC50 (usually the negative decadic logarithm of the IC50, by convention in mol/L) in assay [1] was 6.16.

With `CN1C(=O)[C@@H](NC(=O)c2ccc(Cl)cc2)N=C(c2ccccc2F)c2ccccc21`, the pIC50 in assay [2] was 9.41.

`O=C(Nc1ccc(Cl)cc1)NC1N=C(c2ccccc2F)c2ccccc2NC1=O` (racemic): the pIC50 in assay [2] is 6.96.

On to `CN1C(=O)[C@H](NC(=O)c2ccc(Cl)cc2)N=C(c2ccccc2F)c2ccccc21`, for which the pIC50 in assay [2] is 8.54.
